What was measured:
[1] = Single-dose pharmacokinetics in mice (plasma and brain, UPLC-TSQ/MS); format: in vivo, C57BL/6J mice; conditions: mouse
Procedure: To determine the pharmacokinetics of AP5 in mice, the mice were administered a single dose of AP5 by i.v. and oral gavage dose routes. The plasma and brain homogenate were detected by UPLC-TSQ/MS(Thermo Fisher Scientific, Waltham, MA, United States). The plasma drug concentrations were analyzed for PK data by DAS (Drug and Statistics) Version 3.0 (BioGuider Corporation, Shanghai, China). Bioavailability (F%) after oral administration was calculated as AUCINF p.o./AUCINF i.v./4 × 100. AUCINF p.o. and AUCINF i.v. represent the area under the plasma concentration–time curve extrapolated to infinity after single-dose per os and intravenous injection, respectively. The extent of brain penetration was measured by the brain-to-plasma distribution ratio (B/P). The B/P value was calculated as: AUCINFbrain/AUCINF plasma × 100. AUCINF brain represents the area under the brain concentration–time curve extrapolated to infinity after a single-dose per os.
We next determine the pharmacokinetic profile of AP5 in male C57BL/6J mice given a single intravenous (i.v.) dose of 10 mg/kg or single per os (p.o.) dose of 40 mg/kg, respectively. […] Importantly, we determined AP5 in the brain homogenate with the highest concentration of 95.3 ng/mL at 2 h (Figures 1D,E). […]
(§1) Supplementary materials and methods
(§2) Prepations ofspecimen for pharmacokinetics analysis
24 h afterdosing. Brains were collected at0, 0.25, 0.5,2, 4,8 and 24 h after administration.Plasma extractions were performed by adding 90 μL methanol and 2 μL internalstandard letrozole (500 ng/mL) to a30 µL plasma sample. Brain samples were homogenized in 1 mL PBS per gram brain tissueby handheld homogenizer.
Then 90 μL methanol and 2 μL letrozolewere added to 30 µl brainhomogenates. The samples were vortexed for 3 min and centrifuged 15 min at25,000 g.The plasma and brainhomogenate were analyzed by UPLC-TSQ/MS (Thermo Fisher Scientific, Waltham, MA, USA). Samples were compared to a calibrationcurve prepared ina similarmanner by spiking blank controlplasma or homogenate with standards prepared inmethanol and then extractedas above. […]

[2] = molecular target: T1, AChE-induced Aβ40 fibril formation (Homo sapiens, UniProt P22303); test: ThT kinetics of AChE-induced Aβ40 fibril formation; format: biochemical; conditions: co-incubation of AP5 and Aβ40 with AChE, 24-h kinetic ThT assay
T1 construct: purchased Roche (AChE); Invitrogen (Aβ40) R005282 (AChE); 03-136 (Aβ40)
Procedure: The effects of AP5 on Aβ fibril formation and pre-formed Aβ fibrils disaggregation were determined using a previously described method of Thioflavin T (ThT, T3516, Sigma Aldrich, St. Louis, MO, United States) fluorometry ([Jan et al., 2010]).
Supplementary materials and methods … ...1 […]
Supplementary Figure 1 … .....7
Supplementary Figure 2 … .....7
as §1, §2
24 h afterdosing. Brains were collected at0, 0.25, 0.5,2, 4,8 and 24 h after administration.Plasma extractions were performed by adding 90 μL methanol and 2 μL internalstandard letrozole (500 ng/mL) to a30 µL plasma sample. […]
Then 90 μL methanol and 2 μL letrozolewere added to 30 µl brainhomogenates. The samples were vortexed for 3 min and centrifuged 15 min at25,000 g.The plasma and brainhomogenate were analyzed by UPLC-TSQ/MS (Thermo Fisher Scientific, Waltham, MA, USA). […]
To study the kinetics of Aβ-AChE fibril complex formation, 10 μM Aβ was mixed with AChE (R005282, Roche, Basel, Switzerland) and different concentrations AP5 and incubated with 10 μM ThT and 50 mM glycine-NaOH (pH 8.5) at 37°C, the ThT fluorescence was continually measured for 24 h at 30 min intervals. […] Fluorescence emission at485 nm was measured on a Spectra MAX GeminiXS fluorometerat an excitation wavelength of 450 nm. […]

[3] = test system: hippocampal gene expression; test: Bulk RNA-seq of hippocampal tissues; format: in vivo, APP/PS1 mice
Procedure: APP/PS1 mice of ages 6 months were randomly divided into vehicle (APP/PS1, n = 10) and treatment groups (AP5, n = 10), which were intragastrically administered with AP5 (40 mg/kg) once daily for consecutive 5 months. AP5 was dissolved in distilled water containing 1% sodium carboxymethyl cellulose.
Hippocampal specimens from WT, APP/PS1, and AP5 mice stored in dry ice were sent to Beijing Genomics Institute (Wuhan, China), and the total RNA was extracted for RNA sequencing on BGISEQ-500 system. Moreover, the differentially expressed genes between APP/PS1 and AP5 were analyzed after RNA sequencing.

[4] = male, C57BL/6J, brain homogenate, po, brain, p.o. 40 mg/kg
[5] = male, C57BL/6J, iv, plasma, i.v. 10 mg/kg
[6] = male, C57BL/6J, plasma, iv, 10 mg/kg, i.v. 10 mg/kg
[7] = male, C57BL/6J, plasma, po, 40 mg/kg, p.o. 40 mg/kg
[8] = male, C57BL/6J, po, plasma, p.o. 40 mg/kg

T1 sequence (P22303 32-614): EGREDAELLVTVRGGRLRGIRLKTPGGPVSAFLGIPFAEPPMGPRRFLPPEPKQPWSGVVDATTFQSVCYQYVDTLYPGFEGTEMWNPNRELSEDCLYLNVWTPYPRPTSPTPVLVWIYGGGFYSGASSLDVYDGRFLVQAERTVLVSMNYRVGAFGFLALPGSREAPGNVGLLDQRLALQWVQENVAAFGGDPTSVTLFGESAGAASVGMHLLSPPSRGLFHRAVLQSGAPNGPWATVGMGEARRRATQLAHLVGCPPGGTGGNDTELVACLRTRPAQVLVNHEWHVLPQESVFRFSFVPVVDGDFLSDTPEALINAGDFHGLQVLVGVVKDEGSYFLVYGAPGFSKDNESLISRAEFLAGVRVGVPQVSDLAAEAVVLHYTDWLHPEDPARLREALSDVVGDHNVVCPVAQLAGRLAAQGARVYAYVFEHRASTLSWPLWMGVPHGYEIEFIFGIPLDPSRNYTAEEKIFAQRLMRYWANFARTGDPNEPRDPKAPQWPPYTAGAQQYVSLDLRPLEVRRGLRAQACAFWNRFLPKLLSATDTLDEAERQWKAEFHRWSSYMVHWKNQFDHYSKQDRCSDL

CCN(C)C(=O)Oc1cccc(/C=C2\Cc3cc(OC)c(OC)cc3C2=O)c1 [AP5, (E)-3-((5,6-dimethoxy-1-oxo-1,3-dihydro-2H-inden-2-ylidene)-methyl)phenylethyl(methyl)carbamate]
B/P (brain-to-plasma distribution ratio, brain penetration) ([1]; AUCINF brain/AUCINF plasma × 100, p.o. 40 mg/kg, 40 mg/kg): 10.23% | Cl ([1]; brain, p.o. 40 mg/kg): 896.2 mL/min/kg | Vss ([1]; brain, p.o. 40 mg/kg): 412.6 L/kg | AUC(0-inf) [1, 4]: 744 ng·h/mL | AUC(0-t) [1, 4]: 706 ng·h/mL | half-life [1, 4]: 5.32 h | AUC(0-inf) [1, 5]: 2700 ng·h/mL | AUC(0-t) [1, 5]: 2600 ng·h/mL | clearance [1, 5]: 125 mL/min/kg | half-life [1, 5]: 3.34 h | Vd ([1]; male, C57BL/6J, iv, plasma, i.v. 10 mg/kg, read-out: Vss): 36.3 L/kg | Tmax ([1]; male, C57BL/6J, brain homogenate, po, 40 mg/kg, brain, p.o. 40 mg/kg): 1.5 h | Cmax ([1]; male, C57BL/6J, brain homogenate, po, 40 mg/kg, p.o. 40 mg/kg): 95.4 ng/mL | Kp ([1]; male, C57BL/6J, brain/plasma, po, 40 mg/kg, AUCINF brain/AUCINF plasma × 100, p.o. 40 mg/kg, read-out: B/P (brain-to-plasma distribution ratio, brain penetration)): > 0.1 | Cmax [1, 6]: 5440 ng/mL | Tmax [1, 6]: 0.083 h | Cmax [1, 7]: 2090 ng/mL | Tmax [1, 7]: 2 h | bioavailability ([1]; male, C57BL/6J, plasma, oral, AUCINF p.o./AUCINF i.v./4 × 100, p.o. 40 mg/kg, i.v. 10 mg/kg, read-out: F (oral bioavailability)): 67.2% | AUC(0-inf) [1, 8]: 7260 ng·h/mL | AUC(0-t) [1, 8]: 6990 ng·h/mL | half-life [1, 8]: 4.72 h | Cl ([1]; plasma, p.o. 40 mg/kg): 45.93 mL/min/kg | Vss ([1]; plasma, p.o. 40 mg/kg): 18.79 L/kg | ThT intensity, AChE-induced Aβ40 fibril formation [2]: substantially lowered the ThT intensity in a dose-dependent manner | expression of genes linked to pan-reactive and A1 astrocytes ([3]; hippocampus RNA-seq): reduced the expression of most genes | expression of signature genes of A2-specific astrocytes ([3]; hippocampus RNA-seq, among groups): No differences | DAM gene expression ([3]; hippocampus, AP5-treated vs untreated APP/PS1 mice): increase in DAM gene expression
